Values of other authors, collected in patent US20120196889A1, “CATECHOLAMINE DERIVATIVES AND PRODRUGS THEREOF” (H. Lundbeck A/S, priority 2009, published 2012).

Conditions: in man after oral dosing; high hepatic first-pass metabolism

- oral bioavailability: ~4%
SMILES: CCCc1cc2c(s1)CN[C@@H]1CCc3cc(OC(C)=O)c(OC(C)=O)cc3[C@@H]21 [Adrogolide]
